Measurements: patent US11207431B2, “HDAC6 inhibitors and imaging agents” (The General Hospital Corporation, priority 2017, dated 2021)
Where two headings read alike, the source gives them in different places.

Assays:
HDAC1 [1] = target: T1, HDAC1 (Homo sapiens (Human), UniProt Q13547); experiment: IC50 assay, BPS Biosciences fluorescence assay; type: biochemical
HDAC6 [2] = target: T2, HDAC6 (Homo sapiens (Human), UniProt Q9UBN7); experiment: IC50 assay, BPS Biosciences fluorescence assay; type: biochemical
HDAC5 [3] = target: T3, HDAC5 (Homo sapiens (Human), UniProt Q9UQL6); experiment: IC50 assay, BPS Biosciences fluorescence assay; type: biochemical
T3 sequence (Q9UQL6 whole entry): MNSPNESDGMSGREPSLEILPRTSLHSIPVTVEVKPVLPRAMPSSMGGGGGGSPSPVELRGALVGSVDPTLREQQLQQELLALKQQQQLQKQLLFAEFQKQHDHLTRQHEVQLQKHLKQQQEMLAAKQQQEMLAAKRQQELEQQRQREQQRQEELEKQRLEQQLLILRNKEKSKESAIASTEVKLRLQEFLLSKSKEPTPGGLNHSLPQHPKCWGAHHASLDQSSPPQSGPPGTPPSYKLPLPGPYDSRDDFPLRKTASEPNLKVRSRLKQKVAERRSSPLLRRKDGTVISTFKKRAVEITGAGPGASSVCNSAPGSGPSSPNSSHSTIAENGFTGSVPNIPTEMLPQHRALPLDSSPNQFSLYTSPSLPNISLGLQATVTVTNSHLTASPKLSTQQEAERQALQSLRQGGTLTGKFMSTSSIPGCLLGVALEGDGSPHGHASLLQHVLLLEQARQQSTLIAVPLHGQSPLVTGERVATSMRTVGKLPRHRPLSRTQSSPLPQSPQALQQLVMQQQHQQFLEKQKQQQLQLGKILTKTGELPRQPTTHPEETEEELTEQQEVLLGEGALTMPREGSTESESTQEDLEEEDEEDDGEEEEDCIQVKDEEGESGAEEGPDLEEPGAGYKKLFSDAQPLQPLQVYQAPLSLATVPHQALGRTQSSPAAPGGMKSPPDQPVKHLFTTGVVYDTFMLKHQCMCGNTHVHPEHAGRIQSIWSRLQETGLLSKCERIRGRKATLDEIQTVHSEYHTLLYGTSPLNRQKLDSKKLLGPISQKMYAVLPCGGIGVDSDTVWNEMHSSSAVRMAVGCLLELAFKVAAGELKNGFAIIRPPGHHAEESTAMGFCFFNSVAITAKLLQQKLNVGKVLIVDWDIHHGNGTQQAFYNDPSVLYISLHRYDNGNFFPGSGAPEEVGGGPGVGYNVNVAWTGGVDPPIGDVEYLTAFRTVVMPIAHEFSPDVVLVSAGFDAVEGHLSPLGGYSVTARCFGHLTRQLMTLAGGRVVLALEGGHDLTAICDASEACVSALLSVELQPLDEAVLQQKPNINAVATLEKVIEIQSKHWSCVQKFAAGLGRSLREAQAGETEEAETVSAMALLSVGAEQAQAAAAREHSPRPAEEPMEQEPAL

HDAC3 [4] = target: T4, HDAC3 (Homo sapiens (Human), UniProt O15379); experiment: IC50 assay, BPS Biosciences fluorescence assay; type: biochemical
T4 sequence (O15379 whole entry): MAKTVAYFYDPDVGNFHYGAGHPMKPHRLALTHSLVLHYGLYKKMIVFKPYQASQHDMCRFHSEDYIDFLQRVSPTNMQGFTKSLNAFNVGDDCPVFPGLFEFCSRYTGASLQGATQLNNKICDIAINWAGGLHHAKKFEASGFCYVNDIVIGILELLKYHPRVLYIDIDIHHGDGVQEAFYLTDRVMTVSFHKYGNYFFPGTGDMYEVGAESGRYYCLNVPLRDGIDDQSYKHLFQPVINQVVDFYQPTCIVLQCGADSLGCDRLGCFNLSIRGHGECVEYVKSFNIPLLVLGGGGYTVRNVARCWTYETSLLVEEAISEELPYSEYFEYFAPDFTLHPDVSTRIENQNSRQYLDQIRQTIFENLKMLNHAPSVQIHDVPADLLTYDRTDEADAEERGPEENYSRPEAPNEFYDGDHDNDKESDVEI
T4 sequence (Q9Y618 395-489 partner): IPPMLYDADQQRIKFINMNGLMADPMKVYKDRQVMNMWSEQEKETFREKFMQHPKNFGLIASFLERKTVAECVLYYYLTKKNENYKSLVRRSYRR

HDAC7 [5] = target: T5, HDAC7 (Homo sapiens (Human), UniProt Q8WUI4); experiment: IC50 assay, BPS Biosciences fluorescence assay; type: biochemical
HDAC9 [6] = target: T6, HDAC9 (Homo sapiens (Human), UniProt Q9UKV0); experiment: IC50 assay by Nanosyn (Caliper microfluidics mobility shift detection); type: biochemical; conditions: IC50 measured by Nanosyn
Target sequence in this assay (Q9UKV0 whole entry): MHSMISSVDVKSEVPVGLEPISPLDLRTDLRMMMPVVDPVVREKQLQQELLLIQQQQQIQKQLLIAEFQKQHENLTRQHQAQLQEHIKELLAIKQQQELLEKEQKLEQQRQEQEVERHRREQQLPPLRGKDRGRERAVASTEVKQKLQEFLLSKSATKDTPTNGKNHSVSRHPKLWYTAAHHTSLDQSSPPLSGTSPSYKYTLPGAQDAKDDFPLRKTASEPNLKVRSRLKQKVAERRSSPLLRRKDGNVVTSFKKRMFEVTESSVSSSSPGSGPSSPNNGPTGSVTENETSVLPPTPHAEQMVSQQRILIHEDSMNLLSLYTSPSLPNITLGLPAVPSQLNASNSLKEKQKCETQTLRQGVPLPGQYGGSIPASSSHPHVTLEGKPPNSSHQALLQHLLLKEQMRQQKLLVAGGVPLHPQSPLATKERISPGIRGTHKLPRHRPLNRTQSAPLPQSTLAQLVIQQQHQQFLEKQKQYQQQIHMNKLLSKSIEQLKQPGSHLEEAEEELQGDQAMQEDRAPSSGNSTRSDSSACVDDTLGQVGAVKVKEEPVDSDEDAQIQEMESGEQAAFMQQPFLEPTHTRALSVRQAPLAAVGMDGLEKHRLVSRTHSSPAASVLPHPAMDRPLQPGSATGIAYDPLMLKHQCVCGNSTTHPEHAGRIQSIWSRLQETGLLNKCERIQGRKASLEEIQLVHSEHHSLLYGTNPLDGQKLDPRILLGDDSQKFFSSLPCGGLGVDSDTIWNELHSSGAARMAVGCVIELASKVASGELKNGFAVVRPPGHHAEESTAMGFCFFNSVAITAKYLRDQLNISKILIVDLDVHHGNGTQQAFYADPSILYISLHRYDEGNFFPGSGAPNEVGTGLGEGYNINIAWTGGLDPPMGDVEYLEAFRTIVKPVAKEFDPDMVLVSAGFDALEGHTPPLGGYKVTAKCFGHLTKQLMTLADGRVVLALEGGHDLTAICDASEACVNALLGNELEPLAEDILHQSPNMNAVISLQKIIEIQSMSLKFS

HDAC8 [7] = target: T7, HDAC8 (Homo sapiens (Human), UniProt Q9BY41); experiment: IC50 assay, BPS Biosciences fluorescence assay; type: biochemical
T7 sequence (Q9BY41 whole entry): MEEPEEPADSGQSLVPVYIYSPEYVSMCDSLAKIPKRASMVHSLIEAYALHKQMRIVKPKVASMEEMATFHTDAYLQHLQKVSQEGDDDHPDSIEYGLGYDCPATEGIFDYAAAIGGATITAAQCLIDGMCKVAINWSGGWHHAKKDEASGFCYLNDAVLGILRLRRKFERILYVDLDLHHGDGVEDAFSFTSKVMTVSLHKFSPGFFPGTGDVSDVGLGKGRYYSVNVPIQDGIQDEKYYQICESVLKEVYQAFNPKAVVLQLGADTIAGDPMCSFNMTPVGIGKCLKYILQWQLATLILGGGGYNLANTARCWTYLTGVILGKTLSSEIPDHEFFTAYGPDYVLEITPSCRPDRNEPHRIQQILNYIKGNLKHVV

HDAC4 [8] = target: T8, HDAC4 (Homo sapiens (Human), UniProt P56524); experiment: IC50 assay, BPS Biosciences fluorescence assay; type: biochemical
HDAC6 [9] = target: T2, HDAC6; experiment: IC50 assay by Nanosyn (Caliper microfluidics mobility shift detection); type: biochemical; conditions: IC50 measured by Nanosyn
HDAC11 [10] = target: T9, HDAC11 (Homo sapiens (Human), UniProt Q96DB2); experiment: IC50 assay, BPS Biosciences fluorescence assay; type: biochemical
Target sequence in this assay (Q96DB2 whole entry): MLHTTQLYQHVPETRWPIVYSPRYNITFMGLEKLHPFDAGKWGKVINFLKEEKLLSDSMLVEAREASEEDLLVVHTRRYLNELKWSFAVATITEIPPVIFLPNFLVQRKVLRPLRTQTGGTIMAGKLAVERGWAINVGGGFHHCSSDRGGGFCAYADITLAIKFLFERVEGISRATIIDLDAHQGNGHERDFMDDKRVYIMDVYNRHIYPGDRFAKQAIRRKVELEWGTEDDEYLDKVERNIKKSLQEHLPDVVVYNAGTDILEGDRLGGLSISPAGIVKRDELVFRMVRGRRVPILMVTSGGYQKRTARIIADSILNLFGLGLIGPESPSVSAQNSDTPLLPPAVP

HDAC2 [11] = target: T10, HDAC2 (Homo sapiens (Human), UniProt Q92769); experiment: IC50 assay, BPS Biosciences fluorescence assay; type: biochemical
T10 sequence (Q92769 whole entry): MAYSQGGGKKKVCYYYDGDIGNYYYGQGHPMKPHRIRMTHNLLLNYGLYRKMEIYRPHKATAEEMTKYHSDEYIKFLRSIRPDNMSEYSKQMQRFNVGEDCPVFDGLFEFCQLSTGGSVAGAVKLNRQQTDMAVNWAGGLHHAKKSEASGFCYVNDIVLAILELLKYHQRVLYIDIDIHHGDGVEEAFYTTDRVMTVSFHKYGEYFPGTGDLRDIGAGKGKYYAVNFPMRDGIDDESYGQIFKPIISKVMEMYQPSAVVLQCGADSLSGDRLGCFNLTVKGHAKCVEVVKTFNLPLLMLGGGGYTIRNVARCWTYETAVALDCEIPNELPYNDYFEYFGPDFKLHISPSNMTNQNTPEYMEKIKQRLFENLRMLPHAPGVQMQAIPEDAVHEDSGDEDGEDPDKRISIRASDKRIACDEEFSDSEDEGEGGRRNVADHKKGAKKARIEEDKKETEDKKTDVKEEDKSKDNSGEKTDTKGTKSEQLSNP

HDAC10 [12] = target: T11, HDAC10 (Homo sapiens (Human), UniProt Q969S8); experiment: IC50 assay, BPS Biosciences fluorescence assay; type: biochemical
HDAC11 [13] = target: T9, HDAC11; experiment: IC50 assay by Nanosyn (Caliper microfluidics mobility shift detection); type: biochemical; conditions: IC50 measured by Nanosyn
Target sequence in this assay (Q96DB2 whole entry): as the sequence (Q96DB2 whole entry) above

HDAC5 [14] = target: T3, HDAC5; experiment: as above; type: biochemical; conditions: IC50 measured by Nanosyn
HDAC8 [15] = target: T7, HDAC8; experiment: as above; type: biochemical; conditions: IC50 measured by Nanosyn
HDAC9 [16] = target: T6, HDAC9; experiment: IC50 assay, BPS Biosciences fluorescence assay; type: biochemical
Target sequence in this assay (Q9UKV0 whole entry): as the sequence (Q9UKV0 whole entry) above

HDAC10 [17] = target: T11, HDAC10; experiment: IC50 assay by Nanosyn (Caliper microfluidics mobility shift detection); type: biochemical; conditions: IC50 measured by Nanosyn
Experimental: (§1) IC50 measurements were conducted by BPS Biosciences (Table 1) or by Nanosyn (Table 1A) with an established fluorescence assay. […] A=Martinostat (Caliper (microfluidics mobility shift detection) by Nanosyn (same run, duplicates));

HDAC2 [18] = target: T10, HDAC2; experiment: as above; type: biochemical; conditions: IC50 measured by Nanosyn
Experimental: as §1

HDAC1 [19] = target: T1, HDAC1; experiment: as above; type: biochemical; conditions: IC50 measured by Nanosyn
Experimental: as §1

HDAC3 [20] = target: T4, HDAC3; experiment: as above; type: biochemical; conditions: IC50 measured by Nanosyn
Experimental: as §1

HDAC7 [21] = target: T5, HDAC7; experiment: as above; type: biochemical; conditions: IC50 measured by Nanosyn
HDAC4 [22] = target: T8, HDAC4; experiment: as above; type: biochemical; conditions: IC50 measured by Nanosyn
HDAC8 [23] = target: T7, HDAC8; experiment: IC50 values of comparison compounds B-F (Table 1B); type: biochemical; conditions: comparison compound C, source not stated
Excerpt: (§2) [drawing 62] (see e.g., WO 2015/058106; Fluorescent-intensity-based enzymatic assay, multiple runs; duplicates);

HDAC10 [24] = target: T11, HDAC10; experiment: IC50 values of comparison compounds B-F (Table 1B); type: biochemical; conditions: comparison compound C, source not stated
Excerpt: as §2

HDAC2 [25] = target: T10, HDAC2; experiment: IC50 values of comparison compounds B-F (Table 1B); type: biochemical; conditions: comparison compound C, source not stated
Excerpt: as §2

HDAC9 [26] = target: T6, HDAC9; experiment: IC50 values of comparison compounds B-F (Table 1B); type: biochemical; conditions: comparison compound C, source not stated
Excerpt: as §2
Target sequence in this assay (Q9UKV0 whole entry, species assumed): as the sequence (Q9UKV0 whole entry) above

HDAC5 [27] = target: T3, HDAC5; experiment: IC50 values of comparison compounds B-F (Table 1B); type: biochemical; conditions: comparison compound C, source not stated
Excerpt: as §2

HDAC4 [28] = target: T8, HDAC4; experiment: IC50 values of comparison compounds B-F (Table 1B); type: biochemical; conditions: comparison compound C, source not stated
Excerpt: as §2

HDAC11 [29] = target: T9, HDAC11; experiment: IC50 values of comparison compounds B-F (Table 1B); type: biochemical; conditions: comparison compound C, source not stated
Excerpt: as §2
Target sequence in this assay (Q96DB2 whole entry, species assumed): as the sequence (Q96DB2 whole entry) above

HDAC1 [30] = target: T1, HDAC1; experiment: IC50 values of comparison compounds B-F (Table 1B); type: biochemical; conditions: comparison compound C, source not stated
Excerpt: as §2

HDAC3 [31] = target: T4, HDAC3; experiment: IC50 values of comparison compounds B-F (Table 1B); type: biochemical; conditions: comparison compound C, source not stated
Excerpt: as §2

HDAC6 [32] = target: T2, HDAC6; conditions: read-out: HDAC6 IC50; comparison compound C, source not stated
in vivo = conditions: C57BL/6, mouse
Microsome stability = conditions: human, microsomes
[33] = male, C57BL/6, mouse, in vivo, po, 5 mg/kg
in vitro [34] = conditions: mouse, microsomes
Hepatocyte stability = conditions: human, hepatocytes
[35] = Brain penetrance comparison; conditions: in vivo
[36] = tested on: Human iPSC-derived neural progenitor cells; experiment: Acetylation level assay (Western blot); type: cell-based; conditions: 6 h at 37° C.
HDAC6 [37] = target: HDAC6 (Rattus norvegicus (Rat), UniProt A0A8I6GM68); experiment: Autoradiography competition with radiolabeled Example 2 on rat brain slices; type: binding, Sprague-Dawley rat; conditions: blocking compound at 1 μM
Experimental: Sagittal slices of Sprague-Dawley rat brains were sectioned (10 μm) with a cryostat (Thermo Scientific HM550) and mounted onto ColorFrost Plus microscope slides (Fisher Scientific 12-550-18) and stored at −20° C. […] After 15 min, 50 μCi of the radiolabeled compound of Example 2 was added to each bath. After 15 minutes, all slides were washed by dipping 10× into buffer and subsequently submerged in 50 mL baths of buffer at 4° C. for 5 minutes. The slides were dried at 35° C. in a vacuum chamber. A phosphorus screen (Perkin Elmer 7001723) was exposed with the slides for 45 minutes and subsequently imaged with a Cyclone Plus Storage Phosphor (Perkin Elmer) detector. ImageJ was used to apply a Gaussian blur (3.0 radius) smoothing and a lookup table (Royal) with equivalent thresholds for brightness was applied. Raw intensity values from gray and white matter were quantified with the ImageJ measurement tool.

in vitro [38] = conditions: rat, microsomes
PET/CT imaging in rats = type: in vivo, Sprague-Dawley rats
Experimental: 8 male Sprague-Dawley rats (Charles River Laboratories) were used for PET imaging. […] For intravenous administration, a catheter with an extension line was placed in a lateral tail vein. Each animal received a bolus injection of either vehicle (1:1:8 DMSO/Tween80/saline) or blocking agent in solution (1 mg/kg, 1 mg/mL in 1:1:8 DMSO/Tween80/saline) immediately prior to injection of the radiotracer.
After injection of a radiotracer bolus ([…] Example 2) a 90 min dynamic PET scan was acquired in pairs for all animals. PET scans were performed on a GammaMedica Triumph PET/CT/SPECT scanner, corrected for attenuation with a μ-map derived from the corresponding CT image, which was acquired immediately following the PET scan. The dynamic PET data was binned into 38 timeframes (8×15 s, 8×1 min, 10×2 min, 12×5) and reconstructed individually via an iterative MLEM (maximum likelihood expectation maximization) algorithm in 16 iterations.
PET images were to the CT image acquired from the same animal using AMIDE Data sets were cropped and all further image analysis was conducted using PMOD 3.3 (PMOD Technologies, Zurich, Switzerland). For maximum consistency, the data were coregistered to the Schiffer Px Rat rat brain template and data was derived from a whole brain VOI (volumes of interest) for time activity curves.

[39] = tested on: DiscoverX Safety47 panel: 24 GPCRs, 2 nuclear hormone receptors, 3 neurotransmitter transporters, 8 ion channels, 4 kinases, 6 other enzymes; experiment: Safety (DiscoverX Safety47 Panel); conditions: at 10 μM; 78 assays
[40] = BPS Biosciences fluorescence assay

T1 sequence (Q13547 whole entry): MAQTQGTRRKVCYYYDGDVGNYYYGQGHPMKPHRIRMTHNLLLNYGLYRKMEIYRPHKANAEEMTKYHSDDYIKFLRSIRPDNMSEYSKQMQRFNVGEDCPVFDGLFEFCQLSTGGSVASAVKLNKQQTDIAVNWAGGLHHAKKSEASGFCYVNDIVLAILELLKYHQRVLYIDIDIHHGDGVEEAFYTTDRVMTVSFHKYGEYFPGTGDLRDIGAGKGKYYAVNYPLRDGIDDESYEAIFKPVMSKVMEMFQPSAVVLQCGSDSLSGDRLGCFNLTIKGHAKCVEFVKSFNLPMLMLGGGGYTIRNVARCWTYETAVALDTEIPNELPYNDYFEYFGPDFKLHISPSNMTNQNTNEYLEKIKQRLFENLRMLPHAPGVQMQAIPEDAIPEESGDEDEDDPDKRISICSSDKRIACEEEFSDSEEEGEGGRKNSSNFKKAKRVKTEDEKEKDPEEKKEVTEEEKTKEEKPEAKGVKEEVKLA

## CN(Cc1ccc(/C=C/C(=O)NO)cc1)CC12CC3CC(CC(C3)C1)C2 [Martinostat, martinostat]
HDAC1 [1]; [40]
  IC50: 0.0062 µM
HDAC6 [2]
  IC50: 0.048 µM
HDAC5 [3]
  IC50: 0.98 µM
HDAC3 [4]; [40]
  IC50: 0.0071 µM
HDAC7 [5]
  IC50: > 1 µM
HDAC9 [6]
  IC50: > 1 µM
HDAC8 [7]
  IC50: > 1 µM
HDAC4 [8]; [40]
  IC50: > 1 µM
HDAC4 [8]; at 1 μM, BPS Biosciences, read-out: HDAC4 Percentage Inhibition
  inhibition at 1 µM: 39%
HDAC6 [9]
  IC50: 0.0018 µM
HDAC11 [10]; [40]
  IC50: > 1 µM
HDAC11 [10]; at 1 μM, BPS Biosciences, read-out: HDAC11 Percentage Inhibition
  inhibition at 1 µM: 17%
HDAC2 [11]; [40]
  IC50: 0.022 µM
HDAC10 [12]; [40]
  IC50: 0.0089 µM
HDAC11 [13]
  IC50: > 1 µM
HDAC5 [14]
  IC50: 0.075 µM
HDAC8 [15]
  IC50: 0.75 µM
HDAC9 [16]; [40]
  IC50: > 1 µM
HDAC9 [16]; at 1 μM, BPS Biosciences, read-out: HDAC9 Percentage Inhibition
  inhibition at 1 µM: 12%
HDAC10 [17]
  IC50: 0.002 µM
HDAC2 [18]
  IC50: 0.004 µM
HDAC1 [19]
  IC50: 0.0012 µM
HDAC3 [20]
  IC50: 0.0003 µM
HDAC7 [21]
  IC50: > 1 µM
HDAC4 [22]
  IC50: 0.24 µM

## CN(c1ncc(C(=O)NO)cn1)C12CC3CC(CC(C3)C1)C2 [C]
HDAC8 [23]
  IC50: 0.364 µM
HDAC10 [24]
  IC50: 0.025 µM
HDAC2 [25]
  IC50: 0.065 µM
HDAC9 [26]
  IC50: 0.052 µM
HDAC5 [27]
  IC50: 0.121 µM
HDAC4 [28]
  IC50: 0.034 µM
HDAC11 [29]
  IC50: 3.6 µM
HDAC1 [30]
  IC50: 0.02 µM
HDAC3 [31]
  IC50: 0.024 µM
HDAC6 [32]
  IC50: 0.033 µM

## CN(Cc1ccc(C(=O)NO)cc1F)CC12CC3CC(CC(C3)C1)C2 [Example 1, 4-(((((3s)-Adamantan-1-yl)methyl)(methyl)amino)methyl)-3-fluoro-N-hydroxybenzamide]
In vivo; po
  bioavailability: 10%
In vivo; male, ip, 5 mg/kg
  half-life: 4.8 min
In vivo; male, po, 5 mg/kg
  half-life: 15 min
In vivo; male, po, 5 mg/kg, Cmax
  Cmax: 460 nM
Microsome stability
  half-life: 19 min
HDAC1 [1]; IC50 measured by BPS
  IC50: > 1 µM
[33]
  T1/2: 15 min
HDAC3 [4]; IC50 measured by BPS
  IC50: > 1 µM
In vitro [34]
  half-life: < 10 min
Hepatocyte stability
  half-life: 20 min
[35]
  Brain-penetrant?: +++
[36]; 10 μM
  Histone acetylation (H3K9 and H4K12): remained unaltered
[36]; ACY1215 5 μM, other compounds 10 μM
  amount of cellular acetyl-α-Tubulin: increased
HDAC2 [11]; IC50 measured by BPS
  IC50: > 1 µM
HDAC10 [12]; BPS Biosciences, unit mM printed in cell
  IC50: > 1000 µM
HDAC10 [12]; IC50 measured by BPS
  IC50: > 1 µM
HDAC10 [12]; read-out: HDAC10 Percentage Inhibition
  inhibition at 1000 µM: 21%
HDAC6 [37]
  binding of radiolabeled Example 2 to rat brain slices: significantly reduced
In vitro [38]
  half-life: < 10 min
PET/CT imaging in rats; 1 mg/kg, 30-minutes post radiotracer administration
  effect on time activity curve of radiolabeled Example 2: clear deflection of the time activity curve
PET/CT imaging in rats; non-radioactive compound at 1 mg/kg
  effect on brain uptake of radiolabeled Example 2: blocking of brain uptake
[39]
  Safety (DiscoverX Safety47 Panel): No effect at 10 μM
HDAC10 [17]
  IC50: > 1 µM
HDAC2 [18]
  IC50: > 1 µM
HDAC1 [19]
  IC50: > 1 µM
HDAC3 [20]
  IC50: > 1 µM
